In brackets after ≈: the same amount, converted by molar mass.
tested on: A. baumannii 49; assay: In vitro antibacterial activity test (broth microdilution); type: cell-based; settings: Acinetobacter baumannii; A. baumannii 49; read-out: MIC90
Procedure: (§1) To evaluate antibacterial activity of each of the compounds of Examples 1 to 68, in vitro antibacterial activity test was performed.
(§2) The in vitro antibacterial activity was evaluated by measuring MIC90 (ug/mL) of each of the compounds of Examples 1 to 68, which is defined as the lowest concentration of an antibiotic that will inhibit the visible growth of 90% of microorganisms after incubation as compared with a control group to which the antibiotic is not treated. MIC90 values were measured by the broth microdilution method developed by the Clinical and Laboratory Standards Institute (CLSI) (see CLSI M7-A5, Methods for Dilution Antimicrobial Susceptibility Test for Bacteria that Grow Aerobically-Fifth Edition (2000): CLSI, Villanova, Pa.).
(§3) In vitro antibacterial activity was measured with respect to the following 19 clinical isolates: M. catarrhalis; P. aeruginosa (5 strains); K. pneumoniae (6 strains); A. baumannii (3 strains); E. coli (2 strains); A. calcoaceticus; and E. cloacae.
(§4) Test compounds each (the cephalosporin derivative compounds prepared in Examples 1 to 68) were dissolved in DMSO at the concentration of 10,240 ug/mL, were diluted by two fold with DMSO, and then were diluted by twenty fold with sterilized distilled water. The final concentration in the antibacterial activity test was in the range of […] to 128 ug/mL, and the final concentration of DMSO used as an adjuvant was 2.5% (V/V).

Compound | MIC90
Cn1cc(O)c(=O)cc1C(=O)NCCNc1c[n+](CC2=C(C(=O)[O-])N3C(=O)[C@@H](NC(=O)/C(=N\OC(C)(C)C(=O)O)c4csc(N)n4)C3SC2)cnc1N (stereo partly drawn) [Compound 2] | > 128 µg/mL
CC(C)(O/N=C(\C(=O)N[C@@H]1C(=O)N2C(C(=O)[O-])=C(C[n+]3cnc(N)c(NCCCNC(=O)c4ccc(O)c(O)c4)c3)CSC12)c1csc(N)n1)C(=O)O (stereo partly drawn) [Compound 31] | 32 µg/mL (≈ 41.5 µM)

tested on: A. calcoaceticus ATCC15473; assay: as above; type: cell-based; settings: Acinetobacter calcoaceticus; A. calcoaceticus ATCC15473; read-out: MIC90
Procedure: as §1, §2, §3, §4

Compound | MIC90
Cn1cc(O)c(=O)cc1C(=O)NCCNc1c[n+](CC2=C(C(=O)[O-])N3C(=O)[C@@H](NC(=O)/C(=N\OC(C)(C)C(=O)O)c4csc(N)n4)C3SC2)cnc1N (stereo partly drawn) [Compound 2] | 2 µg/mL (≈ 2.59 µM)
CC(C)(O/N=C(\C(=O)N[C@@H]1C(=O)N2C(C(=O)[O-])=C(C[n+]3cnc(N)c(NCCCNC(=O)c4ccc(O)c(O)c4)c3)CSC12)c1csc(N)n1)C(=O)O (stereo partly drawn) [Compound 31] | 1 µg/mL (≈ 1.3 µM)

tested on: K. pneumoniae 2011E; assay: as above; type: cell-based; settings: Klebsiella pneumoniae, 2011E, K. pneumoniae 2011E; read-out: MIC90
Procedure: as §1, §2, §3, §4

Compound | MIC90
Cn1cc(O)c(=O)cc1C(=O)NCCNc1c[n+](CC2=C(C(=O)[O-])N3C(=O)[C@@H](NC(=O)/C(=N\OC(C)(C)C(=O)O)c4csc(N)n4)C3SC2)cnc1N (stereo partly drawn) [Compound 2] | 4 µg/mL (≈ 5.18 µM)
CC(C)(O/N=C(\C(=O)N[C@@H]1C(=O)N2C(C(=O)[O-])=C(C[n+]3cnc(N)c(NCCCNC(=O)c4ccc(O)c(O)c4)c3)CSC12)c1csc(N)n1)C(=O)O (stereo partly drawn) [Compound 31] | 8 µg/mL (≈ 10.4 µM)

tested on: P. aeruginosa 43; assay: as above; type: cell-based; settings: Pseudomonas aeruginosa; P. aeruginosa 43; read-out: MIC90
Procedure: as §1, §2, §3, §4

Compound | MIC90
Cn1cc(O)c(=O)cc1C(=O)NCCNc1c[n+](CC2=C(C(=O)[O-])N3C(=O)[C@@H](NC(=O)/C(=N\OC(C)(C)C(=O)O)c4csc(N)n4)C3SC2)cnc1N (stereo partly drawn) [Compound 2] | 8 µg/mL (≈ 10.4 µM)
CC(C)(O/N=C(\C(=O)N[C@@H]1C(=O)N2C(C(=O)[O-])=C(C[n+]3cnc(N)c(NCCCNC(=O)c4ccc(O)c(O)c4)c3)CSC12)c1csc(N)n1)C(=O)O (stereo partly drawn) [Compound 31] | 1 µg/mL (≈ 1.3 µM)

tested on: E. cloacae β19; assay: as above; type: cell-based; settings: Enterobacter cloacae, read-out: MIC90
Procedure: as §1, §2, §3, §4

Compound | MIC90
Cn1cc(O)c(=O)cc1C(=O)NCCNc1c[n+](CC2=C(C(=O)[O-])N3C(=O)[C@@H](NC(=O)/C(=N\OC(C)(C)C(=O)O)c4csc(N)n4)C3SC2)cnc1N (stereo partly drawn) [Compound 2] | > 128 µg/mL
CC(C)(O/N=C(\C(=O)N[C@@H]1C(=O)N2C(C(=O)[O-])=C(C[n+]3cnc(N)c(NCCCNC(=O)c4ccc(O)c(O)c4)c3)CSC12)c1csc(N)n1)C(=O)O (stereo partly drawn) [Compound 31] | 16 µg/mL (≈ 20.8 µM)

tested on: P. aeruginosa 37; assay: as above; type: cell-based; settings: Pseudomonas aeruginosa, 37, P. aeruginosa 37; read-out: MIC90
Procedure: as §1, §2, §3, §4

Compound | MIC90
Cn1cc(O)c(=O)cc1C(=O)NCCNc1c[n+](CC2=C(C(=O)[O-])N3C(=O)[C@@H](NC(=O)/C(=N\OC(C)(C)C(=O)O)c4csc(N)n4)C3SC2)cnc1N (stereo partly drawn) [Compound 2] | 4 µg/mL (≈ 5.18 µM)
CC(C)(O/N=C(\C(=O)N[C@@H]1C(=O)N2C(C(=O)[O-])=C(C[n+]3cnc(N)c(NCCCNC(=O)c4ccc(O)c(O)c4)c3)CSC12)c1csc(N)n1)C(=O)O (stereo partly drawn) [Compound 31] | 1 µg/mL (≈ 1.3 µM)

tested on: E. coli AG100; assay: as above; type: cell-based; settings: Escherichia coli, AG100, E. coli AG100; read-out: MIC90
Procedure: as §1, §2, §3, §4

Compound | MIC90
Cn1cc(O)c(=O)cc1C(=O)NCCNc1c[n+](CC2=C(C(=O)[O-])N3C(=O)[C@@H](NC(=O)/C(=N\OC(C)(C)C(=O)O)c4csc(N)n4)C3SC2)cnc1N (stereo partly drawn) [Compound 2] | 0.25 µg/mL (≈ 0.324 µM)
CC(C)(O/N=C(\C(=O)N[C@@H]1C(=O)N2C(C(=O)[O-])=C(C[n+]3cnc(N)c(NCCCNC(=O)c4ccc(O)c(O)c4)c3)CSC12)c1csc(N)n1)C(=O)O (stereo partly drawn) [Compound 31] | 0.25 µg/mL (≈ 0.324 µM)

tested on: P. aeruginosa 40; assay: as above; type: cell-based; settings: Pseudomonas aeruginosa, 40, P. aeruginosa 40; read-out: MIC90
Procedure: as §1, §2, §3, §4

Compound | MIC90
Cn1cc(O)c(=O)cc1C(=O)NCCNc1c[n+](CC2=C(C(=O)[O-])N3C(=O)[C@@H](NC(=O)/C(=N\OC(C)(C)C(=O)O)c4csc(N)n4)C3SC2)cnc1N (stereo partly drawn) [Compound 2] | 4 µg/mL (≈ 5.18 µM)
CC(C)(O/N=C(\C(=O)N[C@@H]1C(=O)N2C(C(=O)[O-])=C(C[n+]3cnc(N)c(NCCCNC(=O)c4ccc(O)c(O)c4)c3)CSC12)c1csc(N)n1)C(=O)O (stereo partly drawn) [Compound 31] | 2 µg/mL (≈ 2.59 µM)

tested on: A. baumannii 52; assay: as above; type: cell-based; settings: Acinetobacter baumannii; A. baumannii 52; read-out: MIC90
Procedure: as §1, §2, §3, §4

Compound | MIC90
Cn1cc(O)c(=O)cc1C(=O)NCCNc1c[n+](CC2=C(C(=O)[O-])N3C(=O)[C@@H](NC(=O)/C(=N\OC(C)(C)C(=O)O)c4csc(N)n4)C3SC2)cnc1N (stereo partly drawn) [Compound 2] | > 128 µg/mL
CC(C)(O/N=C(\C(=O)N[C@@H]1C(=O)N2C(C(=O)[O-])=C(C[n+]3cnc(N)c(NCCCNC(=O)c4ccc(O)c(O)c4)c3)CSC12)c1csc(N)n1)C(=O)O (stereo partly drawn) [Compound 31] | 64 µg/mL (≈ 83 µM)

tested on: A. baumannii 46; assay: as above; type: cell-based; settings: Acinetobacter baumannii; A. baumannii 46; read-out: MIC90
Procedure: as §1, §2, §3, §4

Compound | MIC90
Cn1cc(O)c(=O)cc1C(=O)NCCNc1c[n+](CC2=C(C(=O)[O-])N3C(=O)[C@@H](NC(=O)/C(=N\OC(C)(C)C(=O)O)c4csc(N)n4)C3SC2)cnc1N (stereo partly drawn) [Compound 2] | 4 µg/mL (≈ 5.18 µM)
CC(C)(O/N=C(\C(=O)N[C@@H]1C(=O)N2C(C(=O)[O-])=C(C[n+]3cnc(N)c(NCCCNC(=O)c4ccc(O)c(O)c4)c3)CSC12)c1csc(N)n1)C(=O)O (stereo partly drawn) [Compound 31] | 4 µg/mL (≈ 5.19 µM)

tested on: M. catarrhalis 2524; assay: as above; type: cell-based; settings: Moraxella catarrhalis; M. catarrhalis 2524; read-out: MIC90
Procedure: as §1, §2, §3, §4

Compound | MIC90
Cn1cc(O)c(=O)cc1C(=O)NCCNc1c[n+](CC2=C(C(=O)[O-])N3C(=O)[C@@H](NC(=O)/C(=N\OC(C)(C)C(=O)O)c4csc(N)n4)C3SC2)cnc1N (stereo partly drawn) [Compound 2] | 1 µg/mL (≈ 1.3 µM)
CC(C)(O/N=C(\C(=O)N[C@@H]1C(=O)N2C(C(=O)[O-])=C(C[n+]3cnc(N)c(NCCCNC(=O)c4ccc(O)c(O)c4)c3)CSC12)c1csc(N)n1)C(=O)O (stereo partly drawn) [Compound 31] | 1 µg/mL (≈ 1.3 µM)

tested on: P. aeruginosa 1912E; assay: as above; type: cell-based; settings: Pseudomonas aeruginosa, 1912E, read-out: MIC90
Procedure: as §1, §2, §3, §4

Compound | MIC90
Cn1cc(O)c(=O)cc1C(=O)NCCNc1c[n+](CC2=C(C(=O)[O-])N3C(=O)[C@@H](NC(=O)/C(=N\OC(C)(C)C(=O)O)c4csc(N)n4)C3SC2)cnc1N (stereo partly drawn) [Compound 2] | 2 µg/mL (≈ 2.59 µM)
CC(C)(O/N=C(\C(=O)N[C@@H]1C(=O)N2C(C(=O)[O-])=C(C[n+]3cnc(N)c(NCCCNC(=O)c4ccc(O)c(O)c4)c3)CSC12)c1csc(N)n1)C(=O)O (stereo partly drawn) [Compound 31] | 1 µg/mL (≈ 1.3 µM)

tested on: E. coli β4; assay: as above; type: cell-based; settings: Escherichia coli, read-out: MIC90
Procedure: as §1, §2, §3, §4

Compound | MIC90
Cn1cc(O)c(=O)cc1C(=O)NCCNc1c[n+](CC2=C(C(=O)[O-])N3C(=O)[C@@H](NC(=O)/C(=N\OC(C)(C)C(=O)O)c4csc(N)n4)C3SC2)cnc1N (stereo partly drawn) [Compound 2] | 4 µg/mL (≈ 5.18 µM)
CC(C)(O/N=C(\C(=O)N[C@@H]1C(=O)N2C(C(=O)[O-])=C(C[n+]3cnc(N)c(NCCCNC(=O)c4ccc(O)c(O)c4)c3)CSC12)c1csc(N)n1)C(=O)O (stereo partly drawn) [Compound 31] | 8 µg/mL (≈ 10.4 µM)

tested on: K. pneumoniae β14; assay: as above; type: cell-based; settings: Klebsiella pneumoniae, read-out: MIC90
Procedure: as §1, §2, §3, §4

Compound | MIC90
Cn1cc(O)c(=O)cc1C(=O)NCCNc1c[n+](CC2=C(C(=O)[O-])N3C(=O)[C@@H](NC(=O)/C(=N\OC(C)(C)C(=O)O)c4csc(N)n4)C3SC2)cnc1N (stereo partly drawn) [Compound 2] | 64 µg/mL (≈ 82.9 µM)
CC(C)(O/N=C(\C(=O)N[C@@H]1C(=O)N2C(C(=O)[O-])=C(C[n+]3cnc(N)c(NCCCNC(=O)c4ccc(O)c(O)c4)c3)CSC12)c1csc(N)n1)C(=O)O (stereo partly drawn) [Compound 31] | 32 µg/mL (≈ 41.5 µM)

tested on: P. aeruginosa 6065Y; assay: as above; type: cell-based; settings: Pseudomonas aeruginosa, read-out: MIC90
Procedure: as §1, §2, §3, §4

Compound | MIC90
Cn1cc(O)c(=O)cc1C(=O)NCCNc1c[n+](CC2=C(C(=O)[O-])N3C(=O)[C@@H](NC(=O)/C(=N\OC(C)(C)C(=O)O)c4csc(N)n4)C3SC2)cnc1N (stereo partly drawn) [Compound 2] | 16 µg/mL (≈ 20.7 µM)
CC(C)(O/N=C(\C(=O)N[C@@H]1C(=O)N2C(C(=O)[O-])=C(C[n+]3cnc(N)c(NCCCNC(=O)c4ccc(O)c(O)c4)c3)CSC12)c1csc(N)n1)C(=O)O (stereo partly drawn) [Compound 31] | 4 µg/mL (≈ 5.19 µM)

From patent publication US9630977B2, “Cephalosporin derivatives and pharmaceutical compositions thereof” (Legochem Biosciences, Inc., priority 2011, dated 2017)
